Data on two compounds can be found in US20190046481A1, “TRANSDERMAL FORMULATIONS FOR DELIVERY OF PROPIONIC AND ACETIC ACID NSAIDS, AND THEIR USE IN THE TREATMENT OF NSAID-RESPONSIVE DISEASES AND CONDITIONS” (DELIVRA INC., priority 2015, published 2019).

Read-outs that look alike come from different tables or passages of the source. Bounds are passed on as bounds.

Series [1] in a line: in vivo. The following applies: for concentration at 7 days / Synovial Fluid drug concentration: dog, in vivo. The text has this:
Baseline synovial fluid was collected from untreated canine subjects. […] Synovial fluid was collected from stifle or shoulder joints.
Error bars depicted standard error of the mean.

A short description of series [2]: in vivo. To be noted: dog.
Description: (§1) 12 dogs with radiographic evidence of osteoarthritis (OA) were utilized to compare the concentration of ibuprofen in both blood and synovial fluid following transdermal delivery of ibuprofen formulated in base formulation and oral delivery in capsules. The 12 dogs were randomly divided into two groups of six subjects; one group received the oral positive treatment control and the other group received the transdermal treatment. The treatment cycle consisted of six days twice daily followed by a period of seven days devoid of treatment. Blood and synovial fluid samples (from both stifles and shoulders) were collected on the last (sixth) day of drug application and on the last (seventh) day of the washout period.
(§2) Test article: 1.5% (w/w) ibuprofen in base formulation (4); ˜1 g gel per shoulder joint twice daily (i.e. 15 mg ibuprofen per shoulder joint twice daily). Control article: base formulation; ˜1 g gel per shoulder joint twice daily. Positive Control: 30 mg ibuprofen in capsule PO twice daily.
(§3) Whole blood and synovial fluid samples were collected from the dogs 60 mins post treatment on the 7th day, and additional samples were collected after a 7 day washout. Baseline synovial fluid was collected from untreated canine subjects. Synovial fluid was collected under sedation (medetomidine (0.01 mg/kg) and butorphenol (0.1 mg/kg) IV). The fluid was collected by arthrocentesis into the joint following surgical preparation of the area. Synovial fluid was collected from stifle or shoulder joints.
The conditions of series [3]: for Serum drug concentration: dog, in vivo.
Description: as §1, §2, §3
Series [4] is described as follows: Naproxen quantification in canine sera (LC-MS/MS). Type of series: in vivo, Beagle dogs. The following applies: both sexes, Beagle, dog, serum, oral, mean+/−SEM. The method, then:
A 1 mg/mL stock solution of d3-naproxen was prepared in dimethyl sulfoxide. […] A solution of 200 ng/mL of d3-naproxen was prepared by adding 4 μL of 50 μg/mL solution of d3-naproxen to 996 μL methanol/water (70:30) (stock solution B).
Isocratic chromatographic separation was performed on a Zorbax Eclipse XDB-C18 column (150×4.6 mm I.D., 5 μm particle size, Agilent, Santa Clara, Calif., USA, SN USKH095544) with a XDB-C18 guard column (12.5×4.6 mm I.D., μm particle size, Agilent, Santa Clara, Calif., USA, SN USLE034730) using a mobile phase of acetonitrile/0.02 M NH4OAc (pH=4.00) (70:30) at a flow rate of 0.500 mL/min for 6 min. […] There was a post time of 0.10 min. The column temperature was 40° C. and the autosampler temperature was maintained at 4° C. The sample injection volume was 10 μL. A 4000 Q trap from AB Sciex Instruments equipped with an electrospray ionization (ES1) was used in the negative ion mode with multiple reaction monitoring (MRM) for the quantitative analysis. Nitrogen was used as the collision gas and the curtain gas. […] Analytical data were acquired and quantification processing was performed by using Analyst software.
Six aged Beagle dogs (>6 years) of both sexes with quantified radiographic evidence of osteoarthritis were used for the study. […]

Series [5] has as its system aged Beagle dogs with radiographic evidence of osteoarthritis. As to the kind of experiment: Modified canine brief pain inventory questionnaire in aged dogs with osteoarthritis. The class given is in vivo. To be noted: test day 5; for cumulative pain score compared to baseline: about 1.5 hours after administration. The method, then: This study used a blinded parallel group design with a total of eighteen (18) aged Beagle dogs greater than six years of age with radiographic evidence of osteoarthritis. The dogs were randomized to three groups of six subjects balanced on baseline pain levels determined using a modified canine brief pain inventory questionnaire in which a technician evaluated levels of pain and functional impairment in a standardized obstacle test over two baseline days. […] Dogs were tested on the modified canine brief pain inventory questionnaire daily over 7 days approximately 1.5 hours following administration of their respective treatments. Over the subsequent five test days, the same treatment doses were administered twice daily (i.e., doubling the daily dose), except that a loading dose was administered in the morning of the first day, which consisted of twice the daily dose level used initially (i.e., triple initial dose on the first day). The technicians assessing pain and function with the questionnaire were blinded to treatment conditions. Twice daily observations were conducted for the duration of the study.
Transdermal and oral naproxen were evaluated compared to a negative control as described in the Study Design. […] Questionnaire testing occurred approximately 1.5 hours following the morning dose administration of the test compounds. The two most affected joints of each subject were shaved prior to the first day of drug administration in all treatment groups.
Subjects were assessed on a pain questionnaire once daily on test days. […] Specifically, the ability of each dog to walk, trot, gallop, rear, jump over a low obstacle, climb and descend stairs, jump down from a perch and general activity was evaluated in addition to a subjective evaluation of pain during evaluation of each function. […]
The data consisted of whole number scored for 13 questions assessing measures of both pain (0-2) and functional impairment (0-4), as well as an overall pain and function question (0-4). A cumulative pain and functional impairment score was calculated from all […] for both the pain and functional impairment measures on a daily basis as applicable. […] Subsequently, difference from the baseline scores were calculated for the fifth test day at each dose and subjected to a similar RMANOVA analysis. […]
The dogs were randomized to three groups of six subjects based on mean baseline pain levels determined using a modified canine brief pain inventory questionnaire over two baseline days. […] Pain was evaluated using the pain questionnaire, which was administered approximately 1.5 hours following administration of their respective treatments. […] Data from the fifth treatment day at each dose compared to baseline was statistically evaluated.

The mark [6] stands for this setting: Dose 2 (high dose, twice daily).

As for `CC(C)Cc1ccc(C(C)C(=O)O)cc1` (centres unmarked) [Ibuprofen], the concentration at 7 days in series [1] stood at 58.5 ng/mL; in series [1] (po) it was 8.5 ng/mL; in series [2], 58.5 ng/mL; in series [2] (po), 8.5 ng/mL. In addition, the “Synovial Fluid drug concentration” value in series [1] (60 min) is given as 1,711 (±828) ng/mL; in series [1] (7 days) it was 31 (±21)^□ ng/mL; in series [1] (po, 60 min) it was 2,065 (±1,070) ng/mL; in series [1] (po, 7 days) it was 5 (±3)^□ ng/mL. Besides, in series [1] (synovial fluid, oral or transdermal), the “reduction of drug by a one week washout period” value is on record as more than 95%. Also, the Serum drug concentration is recorded as 2,904 (±1,212) ng/mL in series [3] (60 min); 59 (±38)^□ ng/mL in series [3] (7 days); 15,420 (±3,450) ng/mL in series [3] (po, 60 min); 9 (±4)^□ ng/mL in series [3] (po, 7 days). For the same compound, the “reduction of circulating drug by a one week washout period” value in series [3] (serum, oral or transdermal) is more than 95%.

`COc1ccc2cc([C@H](C)C(=O)O)ccc2c1` [oral naproxen, Naproxen] returned a concentration at 60 min in series [4] (capsule PO once daily for seven days, 60 minutes post administration) of 102000 ng/mL. The compound further displayed a concentration at 7 days in series [4] (seven day washout) of 16200 ng/mL. Moreover, the “cumulative pain score difference from mean baseline compared to negative control” value is given as “reduced pain at only the low dose” in series [5] (Dose 1 (low dose, once daily)) and “reduced pain at only the low dose” in series [5] (setting [6]). The “cumulative pain score compared to baseline” value was “significant decrease from baseline” in series [5] (Dose 1 (low dose, once daily)) and “reduced measures of pain at only the low dose” in series [5] (setting [6]).
